Laboratory results taken from patent publication US20030158254A1, “Engineering absorption of therapeutic compounds via colonic transporters” (XenoPort, Inc., priority 2002, published 2003).
pIC50: −log10 of the molar value.

Tests used:
[1] = molecular target: T1, hSMVT (Homo sapiens, UniProt Q9Y289); experiment: Radiolabeled competition assay in SMVT-expressing CHO cells; assay type: cell-based; conditions: radiolabeled competition assay in SMVT-expressing CHO cells; read-out: IC50
T1 sequence (Q9Y289 1-635): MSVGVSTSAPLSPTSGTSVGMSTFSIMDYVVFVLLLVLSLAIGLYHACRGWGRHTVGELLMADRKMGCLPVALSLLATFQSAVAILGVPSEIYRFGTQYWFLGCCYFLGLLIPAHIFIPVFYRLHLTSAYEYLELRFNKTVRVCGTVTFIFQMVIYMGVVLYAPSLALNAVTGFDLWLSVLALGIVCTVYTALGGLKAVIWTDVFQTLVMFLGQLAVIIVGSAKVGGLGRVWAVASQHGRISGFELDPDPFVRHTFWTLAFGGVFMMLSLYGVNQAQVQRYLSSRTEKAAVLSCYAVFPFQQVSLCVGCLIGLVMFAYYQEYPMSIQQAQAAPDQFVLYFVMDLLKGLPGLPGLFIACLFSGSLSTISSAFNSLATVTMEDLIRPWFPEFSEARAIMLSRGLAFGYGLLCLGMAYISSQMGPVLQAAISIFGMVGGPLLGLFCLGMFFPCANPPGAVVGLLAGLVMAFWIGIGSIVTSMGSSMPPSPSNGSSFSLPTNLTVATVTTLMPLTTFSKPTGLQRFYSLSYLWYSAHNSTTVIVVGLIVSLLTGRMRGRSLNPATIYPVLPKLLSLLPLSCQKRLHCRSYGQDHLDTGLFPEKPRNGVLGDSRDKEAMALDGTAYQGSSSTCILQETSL
Excerpt: The complete open reading frame of human ATBO+(SLC6A14) and SMVT (SLC5A6) were amplified from human cDNA prepared from liver or intestine mRNA. […] Amplified PCR products were cloned into a modified version of the mammalian expression vector pcDNA3 (termed pMO) that was engineered to contain the 5′ and 3′ untranslated regions from the Xenopus beta-globin gene. All clones were completely sequenced and tested for function by transient transfection in HEK293 cells.
For cell uptake studies, stable CHOK1 clones were seeded into polylysine coated 96-well microtitre plates and grown for 2-3 days. Cells were incubated with experimental solutions (combinations of radiolabeled and unlabeled compounds) for 30 minutes at room temperature, washed four times, and lysed in scintillation solution. Accumulation of radiolabeled molecules was measured in a microtitre scintillation plate reader (Perkin Elmer). Inhibition constants (IC50s) were calculated using curve-fitting software (Prism).

[2] = molecular target: T1, hSMVT; experiment: Transport currents in SMVT-expressing Xenopus oocytes, normalized to biotin; assay type: cell-based; conditions: response relative to biotin, transporter-expressing oocytes, test compound 0.5 mM
Excerpt: The complete open reading frame of human ATBO+(SLC6A14) and SMVT (SLC5A6) were amplified from human cDNA prepared from liver or intestine mRNA. Gene-specific oligonucleotide primers were designed against Genbank sequences (AF151978 and NM-021095). Amplified PCR products were cloned into a modified version of the mammalian expression vector pcDNA3 (termed pMO) that was engineered to contain the 5′ and 3′ untranslated regions from the Xenopus beta-globin gene. All clones were completely sequenced and tested for function by transient transfection in HEK293 cells.
cRNA for oocyte expression was prepared by linearization of plasmid cDNA and in vitro transcription using T7 polymerase (Epicentre Ampliscribe kit). Xenopus oocytes were prepared and maintained as previously described (Collins et al., PNAS […]:5456-5460 (1997)) and injected with 10-30 ng RNA. Transport currents were measured 2-6 days later using two-electrode voltage-clamp (Axon Instruments). All experiments were performed using a modified oocyte Ringers solution (90 mM NaCl, 2 mM KCl, 1.8 mM CaCl2, 1 mM MgCl2, and 10 mM Na HEPES, pH 7.4; in Na^+-free solutions 90 mM choline chloride was substituted for NaCl). The membrane potential of oocytes was held at −60 mV and current traces acquired using PowerLab software (AD Instruments). Full 7-concentration dose-responses were performed for each compound. […] Half-maximal concentrations were calculated using non-linear regression curve fitting software (Prism) with the Hill co-efficient fixed to 1. To ensure that currents were specific for the over-expressed transporter, all compounds were tested against uninjected oocytes. Since both ATBO+ and SMVT require Na^+ for transport, we confirmed transport specificity by application of the compounds in a Na^+-free solution.
In vitro transport data for selected compounds on hSMVT-expressing cells

Compound: CC(C)(N)C(=O)NCC1(CC(=O)O)CCCCC1 [Compound V, a-aminoisobutyryl gabapentin]
- pIC50 [1]: 3.49
- % Max. (Biotin) [2]: 36%
